One assay concerns embryonic stem cells. Kind of assay: RT-PCR analysis of insulin (INS) and amylase (AML) transcripts in embryonic stem cells differentiated with retinoic acid. It counts as cell-based. Further details: key to Abundance of Insulin RT-PCR Product (INS) / Abundance of Amylase RT-PCR Product (AML): +: Indicates relative abundance; −: No RT-PCR band observed. How it is done:
Embryonic stem cell lines were cultured and spilt 1:8 every three days for 4 passages on gelatin coated Tissue Culture (TC) dishes without Mouse Embryonic Fibroblasts (MEF's) (with 1500 units/ml Lymphocyte Inhibitory Factor (LIF) in media) to remove MEF's from culture. The resulting stem cells were then differentiated as follows:
On day 1, the stem cells were treated with trypsin to break up some aggregation and then suspended in 1% Fetal Calf Serum (FCS) Media (without LIF). The stem cells were then allowed to self-aggregate into embryoid bodies in suspension culture in bacterial petri dishes. On day 3, the cells were given a fresh media change and then split among two bacterial petri dishes (sample and control). A solution containing 1 μM retinoic acid was intermixed with the sample and both the control (no retinoic acid) and the sample were allowed to sit at 37° C. Fresh media were supplied at day 5 (with fresh 1 μM retinoic acid for the treated sample). At day 7, fresh media was supplied for both, with no retinoic acid (retinoic acid only present from days 3 to 7).
Fresh media was supplied again on day 9. On […] the cells were again trypsinized and then placed into TC dishes with 10% FCS media (no LIF). Small aliquots were taken at various times (days 14, 17, 19, 22, and 25) from the cultures and were saved for later analysis by reverse transcriptase polymerase chain reaction (RT-PCR).
On day 14, the media was changed for the two groups of cells (10% FCS) in each population (control and sample). On day 17, the media was changed again.
On day 19, adherent cells were gently blown off by pipetting, then trypsinized and resuspended in 10% FCS in bacterial petri dish suspension cultures. On days 22 and 25, the remaining cells were collected and a portion retained for RT-PCR analysis.
All culturing from day 1 forward was performed in 25 millimolar (mM) glucose (high glucose) until after day 19, when it was changed to 5.5 millimolar glucose (lower glucose) The glucose concentrations ranged from 30 mM to 10 mM on the high end and 0.5 mM-5 mM on the low end.
Total RNA from each aliquot collected above was purified as instructed with a Qiagen RNeasy® Mini purification kit (obtained commercially from Qiagen Inc.). The presence of specific RNA transcripts (i.e. insulin) was determined by RT-PCR using gene specific oligonucleotide primers as instructed with a Qiagen® OneStep RT-PCR kit (obtained commercially from Qiagen Inc.). Total RNA was prepared from cultures of differentiating ES cells. RT-PCR analyses were performed with appropriate oligonucleotide primers (INS-insulin) or the pancreatic specific product amylase (AML).

The next assay relates to embryoid bodies. Nature of the assay: Immunoperoxidase cytochemistry for insulin in suspended embryoid bodies. The conditions noted are these: retinoic acid days 3 to 7; suspension culture; day 32; versus control lacking primary antibody; FIG. 4. Format: cell-based. How it is done:
Embryonic stem cell lines were cultured as described above for Examples 1-10 on gelatin coated Tissue Culture (TC) dishes without Mouse Embryonic Fibroblasts (MEF's) (with 1500 units/ml Lymphocyte Inhibitory Factor (LIF) in media) to remove MEF's from culture. The resulting stem cells were then differentiated as described above (with retinoic acid during treatment during days 3 to 7) except that the formed embryoid bodies were maintained in suspension for the duration of the experiment as opposed to being separated and adhered to TC dishes. All culturing from day 1 forward was performed in 25 millimolar (mM) glucose (high glucose) until after day 19, when it was changed to 5.5 millimolar glucose (physiological glucose).

The mark [1] stands for this setting: Ex. 10, lane 5, 1 μM retinoic acid days 3 to 7, day 25, glucose 5.5 mM.

`CC1=C(/C=C/C(C)=C/C=C/C(C)=C/C(=O)O)C(C)(C)CCC1` [retinoic acid]: the “Abundance of Insulin RT-PCR Product (INS)” value with embryonic stem cells (Ex. 9, lane 4, 1 μM retinoic acid days 3 to 7, day 22, glucose 5.5 mM) is recorded as “+”. Moreover, in the assay with embryonic stem cells (setting [1]), the “Abundance of Amylase RT-PCR Product (AML)” value is on record as “−” and the “Abundance of Insulin RT-PCR Product (INS)” value is listed as “−”. Besides, the “Formation of insulin-producing cells (correctly sized insulin-specific RT-PCR band)” value in the assay with embryonic stem cells (stem cells treated with retinoic acid, aliquots at days 14, 17, 19 and 22, FIG. 1) is “insulin-producing cells resulted”. Moreover, the “Insulin protein in embryoid bodies by specific antibody staining” value in the assay with embryoid bodies is “produce insulin”.

These data come from patent US20030032183A1, “Stem cell differentiation” (priority 2001, published 2003).
